Data taken from patent US11168134B2, “Methods of treating androgen deprivation therapy resistant prostate cancer” (Fondazione per l'Istituto Oncologico di Ricerca (IOR), priority 2018, dated 2021).

How the values were obtained:
TRAMP-C1 cells [1] = assay: CXCR2 antagonist treatment of castrated TRAMP-C1 allograft mice; format: in vivo, mouse
Method: (§1) All mice were maintained under specific pathogen-free conditions in the IRB facility and experiments were performed according to state guidelines and approved by the local ethics committee. Male C57BL/6 or FVB mice 6-8 weeks of age were purchased from Jackson Laboratories (Envigo), and acclimated for at least a week before use. C57BL/6 IL-23p19KO (IL23ko) mice were kindly provided by Prof. Federica Sallusto (IRB, Bellinzona). Pten^pc−/− mice were generated and genotyped as previously described. Female Pten^loxP/loxP mice were crossed with male PB-Cre4 transgenic mice and genotyped for Cre using following primers: primer 1 (5′-[…]-3′) and primer 2 (5′-[…]-3′) for PTEN^loxP/loxP; primer 1 (5′ […] 3′) and primer 2 (5′CAGCCACCAGCTTGCATGA 3′) for Probasin-CRE. Surgical castration was performed under anesthesia with isoflurane. Mice were monitored postoperatively for recovery from anesthesia and checked daily for 2 days postoperatively. Surgical skin clips were removed on postoperative day 5. Mice undergoing treatment were administered control vehicle or therapeutic doses of the appropriate agents. Any mouse suffering distress or greater than 15% weight loss during treatment was euthanized by CO2 asphyxiation. At the completion of study, mice were euthanized by CO2 asphyxiation and tissue was collected for histology, mRNA analysis, protein analysis, and single cell suspensions for flow cytometry. For allograft experiments, 2.5×10^6 TRAMP-C1 cells, 2.5×10^6 TRAMP-C1 IL23RKO, or 2×10^6 MyC-CaP cells were injected subcutaneously into the flank of male respectively C57BL/6 or FVB mice. When tumors were approximately 100 mm^3, mice were randomized to the treatment groups. Tumor growth was monitored daily by measuring the tumor size with caliper. The tumor volume was estimated by calculating R1*R2*R3*4/3π, where R1 and R2 are the longitudinal and lateral radii, and R3 is the thickness of tumor protruding from the surface of normal skin. Animals were sacrificed when the tumor reached approximately 600 mm^3.
(§2) αCXCR2 (AZD5069; AstraZeneca) was administered with daily intraperitoneal injections at a final concentration of 100 mg/kg on a Monday through Friday schedule. Control animals received vehicle. Enzalutamide (APExBio) was administered daily by oral gavage with a dose of 30 mg/kg/day on a Monday through Friday schedule. Rat anti-IL23 antibody (100 ng per mouse; G23-8; IgG1, kappa; eBioscience) or rat IgG1 isotype control (eBioscience) were administered weekly via intraperitoneal injection.
(§3) Tumors were disaggregated and digested in collagenase D and DNAse for 30 minutes at 37° C. to obtain single-cell suspension. For intracellular cytokine detection cells where stimulated for 5 hours with PMA/ionomycin. After neutralization of unspecific binding with αCD16/CD32 (clone 93), single-cell suspensions were stained with specific mAb (primary antibodies directly conjugated) to assess the phenotype. […] Data were analyzed using FlowJo software (TreeStar, Ashland, Oreg.).
(§4) RNA isolation (TRIzol, Qiagen) and retro-transcription with SuperScriptIII (Invitrogen, 11752-250) were performed according to the manufacturer's instructions. Quantitative PCR (qPCR) reactions (Bio-Rad) were performed using KAPA SYBR FAST qPCR green (KK4605; Applied Biosystems) and the specific primers reported below. […]

TRAMP-C1 cells [2] = assay: In vitro culture of prostate cancer cells under full androgen deprivation (F.A.D.); format: cell-based, mouse
Method: Prostate cancer cell lines were starved in Charcoal Stripped FBS (CS-FBS) medium for 72 h and then cultured with RPMI 1640 containing 10% heat-inactivated FBS (normal medium) or kept in full androgen deprivation medium (RPMI 1640 containing 10% heat-inactivated Charcoal Stripped-FBS plus Enzalutamide 10 μM; F.A.D.). Then, the cells were stimulated with or without condition media obtained from activated BM-derived MDSCs, or recombinant IL23 (100 ng/ml; R&D System), with or without αRORγ (5 μM; SR2211; Calbiochem®). Then, the cells were analyzed for Crystal Violet assay or stained with Annexin V/7AAD or collected for RNA extraction.
RNA isolation (TRIzol, Qiagen) and retro-transcription with SuperScriptIII (Invitrogen, 11752-250) were performed according to the manufacturer's instructions. Quantitative PCR (qPCR) reactions (Bio-Rad) were performed using KAPA SYBR FAST qPCR green (KK4605; Applied Biosystems) and the specific primers reported below. Primer sequences were obtained from PrimerBank (http://pga.mgh.harvard.edu/primerbank/index.html) or BIORAD. Each expression value was normalized by HPRT or GADPH level as reference.

MyC-CaP cells = assay: CXCR2 antagonist treatment of castrated MyC-CaP allograft mice; format: in vivo, mouse
Method: as §1, §2, §3, §4

[3] = system: prostate tumors of CTX Pten^pc−/− mice; assay: CXCR2 antagonist treatment of surgically castrated Pten^pc−/− mice; format: in vivo, mouse
Method: All mice were maintained under specific pathogen-free conditions in the IRB facility and experiments were performed according to state guidelines and approved by the local ethics committee. Male C57BL/6 or FVB mice 6-8 weeks of age were purchased from Jackson Laboratories (Envigo), and acclimated for at least a week before use. C57BL/6 IL-23p19KO (IL23ko) mice were kindly provided by Prof. Federica Sallusto (IRB, Bellinzona). Pten^pc−/− mice were generated and genotyped as previously described. […] Mice were monitored postoperatively for recovery from anesthesia and checked daily for 2 days postoperatively. […] Tumor growth was monitored daily by measuring the tumor size with caliper. […]
Tumors were disaggregated and digested in collagenase D and DNAse for 30 minutes at 37° C. to obtain single-cell suspension. […] Data were analyzed using FlowJo software (TreeStar, Ashland, Oreg.).
as §4

[4] = system: castration resistant prostate tumors of Pten^pc−/− mice; assay: Preclinical trial in castration-resistant Pten^pc−/− mice (αIL23, ENZA, ENZA+αIL23); format: in vivo, mouse; settings: ENZA 30 mg/kg/day oral alone
Method: All mice were maintained under specific pathogen-free conditions in the IRB facility and experiments were performed according to state guidelines and approved by the local ethics committee. Male C57BL/6 or FVB mice 6-8 weeks of age were purchased from Jackson Laboratories (Envigo), and acclimated for at least a week before use. C57BL/6 IL-23p19KO (IL23ko) mice were kindly provided by Prof. Federica Sallusto (IRB, Bellinzona). Pten^pc−/− mice were generated and genotyped as previously described. Female Pten^loxP/loxP mice were crossed with male PB-Cre4 transgenic mice and genotyped for Cre using following primers: primer 1 (5′-[…]-3′) and primer 2 (5′-[…]-3′) for PTEN^loxP/loxP; primer 1 (5′ […] 3′) and primer 2 (5′CAGCCACCAGCTTGCATGA 3′) for Probasin-CRE. Surgical castration was performed under anesthesia with isoflurane. Mice were monitored postoperatively for recovery from anesthesia and checked daily for 2 days postoperatively. Surgical skin clips were removed on postoperative day 5. […] Tumor growth was monitored daily by measuring the tumor size with caliper. […]
For immunohistochemistry (IHC), tissues were fixed in 10% formalin (ThermoScientific, 5701) and embedded in paraffin in accordance with standard procedures. […] All the quantifications have been done using the public online software ImmunoRatio (153.1.200.58:8080/iimunoratio/). […]

C[C@@H](Oc1cc(NS(=O)(=O)N2CCC2)nc(SCc2cccc(F)c2F)n1)[C@@H](O)CO [AZD5069]
tumor infiltration of PMN-MDSCs (TRAMP-C1 cells [1]; castrated C57BL/6 mice with s.c. TRAMP-C1 tumors, AZD5069 100 mg/kg i.p., flow cytometry (FIG. 7a)): strongly reduced the tumor infiltration of PMN-MDSCs
emergence of CRPC (TRAMP-C1 cells [1]; castrated TRAMP-C1 allograft mice): delayed the emergence of CRPC
tumor size (TRAMP-C1 cells [1]; castrated TRAMP-C1 allograft mice (FIG. 7c)): decreased tumor size
survival (TRAMP-C1 cells [1]; castrated TRAMP-C1 allograft mice, Kaplan-Meier (FIG. 7d)): longer survival
level of AR target genes in tumors (TRAMP-C1 cells [1]; castrated TRAMP-C1 allograft mice, qRT-PCR (FIG. 7b)): decreased
AR activity (AR target genes, qRT-PCR) (TRAMP-C1 cells [2]; TRAMP-C1 cells in F.A.D., 24 h of treatment with CXCR2 antagonist (FIG. 6i)): did not directly affect
cell proliferation (TRAMP-C1 cells [2]; TRAMP-C1 cells in F.A.D., 72 h of treatment with CXCR2 antagonist (FIG. 6h)): did not directly affect
tumor infiltration of PMN-MDSCs (MyC-CaP cells; castrated FVB mice with s.c. MyC-CaP tumors, AZD5069 100 mg/kg i.p., flow cytometry (FIG. 7e)): strongly reduced the tumor infiltration of PMN-MDSCs
emergence of CRPC (MyC-CaP cells; castrated MyC-CaP allograft mice): delayed the emergence of CRPC
tumor size (MyC-CaP cells; castrated MyC-CaP allograft mice (FIG. 7g)): decreased tumor size
survival (MyC-CaP cells; castrated MyC-CaP allograft mice, Kaplan-Meier (FIG. 7h)): longer survival
level of AR target genes in tumors (MyC-CaP cells; castrated MyC-CaP allograft mice, qRT-PCR (FIG. 7f)): decreased
tumor infiltration of PMN-MDSCs ([3]; AZD5069 100 mg/kg i.p. daily Monday-Friday, flow cytometry (FIG. 6f)): strongly reduced the tumor infiltration of PMN-MDSCs
progression to CRPC ([3]; judged by tumor volume and levels of AR target genes, untreated mice developed CRPCs four months after castration): did not progress to CRPCs

CNC(=O)c1ccc(N2C(=S)N(c3ccc(C#N)c(C(F)(F)F)c3)C(=O)C2(C)C)cc1F [ENZA, Enzalutamide]
treatment effect (glands, tumor volume, proliferation) [4]: ineffective

B1: recombinant IL23: recombinant IL23 (100 ng/ml; R&D System) (protein, UniProt Q9NPF7 20-189; P29460 23-328, looked up)
Interleukin-23 subunit alpha: RAVPGGSSPAWTQCQQLSQKLCTLAWSAHPLVGHMDLREEGDEETTNDVPHIQCGDGCDPQGLRDNSQFCLQRIHQGLIFYEKLLGSDIFTGEPSLLPDSPVGQLHASLLGLSQLLQPEGHHWETQQIPSLSPSQPWQRLLLRFKILRSLQAFVAVAARVFAHGAATLSP
Interleukin-12 subunit beta: IWELKKDVYVVELDWYPDAPGEMVVLTCDTPEEDGITWTLDQSSEVLGSGKTLTIQVKEFGDAGQYTCHKGGEVLSHSLLLLHKKEDGIWSTDILKDQKEPKNKTFLRCEAKNYSGRFTCWWLTTISTDLTFSVKSSRGSSDPQGVTCGAATLSAERVRGDNKEYEYSVECQEDSACPAAEESLPIEVMVDAVHKLKYENYTSSFFIRDIIKPDPPKNLQLKPLKNSRQVEVSWEYPDTWSTPHSYFSLTFCVQVQGKSKREKKDRVFTDKTSATVICRKNASISVRAQDRYYSSSWSEWASVPCS
cell survival (AnnexinV/7AAD) (TRAMP-C1 cells [2]; TRAMP-C1 cells kept in F.A.D., recombinant IL23 100 ng/ml (FIG. 2f-g)): promoted
transcription of androgen receptor target genes (TRAMP-C1 cells [2]; TRAMP-C1 cells kept in F.A.D., recombinant IL23 100 ng/ml, 24 h, qRT-PCR (FIG. 2h)): increased transcription of androgen receptor target genes
cell proliferation (TRAMP-C1 cells [2]; TRAMP-C1 cells kept in F.A.D., recombinant IL23 100 ng/ml, 72 h (FIG. 2e)): promoted proliferation
